For orientation: Ki means the equilibrium dissociation constant of an inhibitor or competing ligand from its target. A low value points to tighter binding. The term EC50 denotes the midpoint of the concentration-response curve.

Assay [1] addresses T1, human full-length glucocorticoid receptor (Homo sapiens, UniProt P04150).
T1 construct: recombinantly expressed human full-length glucocorticoid receptor; purchased PanVera Co., Madison, Wis; P2816
T1 sequence (P04150 1-777): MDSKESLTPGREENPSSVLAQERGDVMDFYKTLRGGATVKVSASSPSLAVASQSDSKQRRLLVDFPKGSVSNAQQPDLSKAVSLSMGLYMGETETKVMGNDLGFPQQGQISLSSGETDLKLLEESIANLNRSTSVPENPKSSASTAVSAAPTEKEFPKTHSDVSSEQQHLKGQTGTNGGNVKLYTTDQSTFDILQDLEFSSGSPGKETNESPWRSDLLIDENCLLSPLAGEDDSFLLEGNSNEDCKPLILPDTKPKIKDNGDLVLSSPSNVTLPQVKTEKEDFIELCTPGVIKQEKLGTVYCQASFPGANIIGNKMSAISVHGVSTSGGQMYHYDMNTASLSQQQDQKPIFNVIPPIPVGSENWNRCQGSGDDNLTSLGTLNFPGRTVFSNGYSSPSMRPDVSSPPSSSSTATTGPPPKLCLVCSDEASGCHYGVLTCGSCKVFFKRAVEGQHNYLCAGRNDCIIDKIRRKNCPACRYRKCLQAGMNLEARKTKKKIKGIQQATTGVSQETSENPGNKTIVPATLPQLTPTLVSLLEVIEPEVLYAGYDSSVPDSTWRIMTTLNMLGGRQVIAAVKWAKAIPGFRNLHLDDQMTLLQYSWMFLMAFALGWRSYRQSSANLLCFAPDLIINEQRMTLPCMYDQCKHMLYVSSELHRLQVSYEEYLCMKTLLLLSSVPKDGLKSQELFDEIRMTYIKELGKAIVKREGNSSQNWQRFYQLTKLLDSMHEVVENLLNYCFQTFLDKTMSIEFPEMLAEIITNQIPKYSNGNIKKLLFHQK
The experiment in a line: Glucocorticoid Receptor Binding Assay (II), fluorescence polarization competitor kit (Fluormone GS1). The following applies: GR Binding Assay (II). The procedure:
Glucocorticoid Receptor Binding Assay (II)^b
In order to measure the binding of compounds on the glucocorticoid receptor a commercially available kit was used (Glucocorticoid receptor competitor assay kit, PanVera Co., Madison, Wis., P2816). Briefly, a cell lysate containing recombinantly expressed human full-length glucocorticoid receptor was mixed with a fluorescently labeled glucocorticoid (1 nM Fluormone GS1) in the presence or absence of test compound. After one hour at room temperature, the fluorescence polarization (FP) of the samples were measured.
Background: Polarisation of emitted light reports the rotation of a fluorescent probe.

The test system of assay [2] is AP-1 induced transcriptional activity. In words: Cellular Transrepressional Assay: AP-1 luciferase reporter in PMA-activated A549 cells. The following applies: for Emax: A549, 7 h, read-out: AP-1 Max % inh (Cellular Transrepression Assay). The format is cell-based. The gist of the method: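 Compounds tested from 0.1 nM to 40 μM during a 7 h PMA (10 ng/ml) stimulation of A549 cells stably transfected with 7× AP-1 sites driving luciferase. Repression expressed as % reduction of PMA-induced luminescence; EC50 by curve fitting.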

[3] abbreviates: Homo sapiens, maximum inhibition, Cellular Transrepression Assay.
The mark [4] stands for this setting: Homo sapiens, A549, Cellular Transrepression Assay.

In assay [1], `COc1ccc([C@H](c2ccccc2)C(C)(C)C(=O)Nc2nncs2)cc1Br` [Example 287, (3S)-3-(3-bromo-4-(methyloxy)phenyl)-2,2-dimethyl-3-phenyl-N-1,3,4-thiadiazol-2-ylpropanamide] came in with a Ki of 14.7 nM.
The molecule `CC(C)(C(=O)Nc1nccs1)C(c1ccc(F)cc1)c1ccc(N2CCOCC2)cc1` (stereo not drawn) [Example 222, 3-(4-Fluorophenyl)-2,2-dimethyl-3-(4-(4-morpholinyl)phenyl)-N-1,3-thiazol-2-ylpropanamide] showed a Ki in assay [1] of 12.6 nM.
`CC(C)(C(=O)Nc1ncns1)[C@@H](c1ccccc1)c1ccc(O)cc1` [Example 342, (3S)-3-(4-hydroxyphenyl)-2,2-dimethyl-3-phenyl-N-1,2,4-thiadiazol-5-ylpropanamide] displayed a Ki in assay [1] of 8.1 nM.
With `CC(C)(C(=O)Nc1nncs1)[C@@H](c1ccccc1)c1ccc(N2CCOCC2)cc1` (stereo in doubt) [Example 259, 2,2-dimethyl-3-(4-(4-morpholinyl)phenyl)-3-phenyl-N-1,3,4-thiadiazol-2-ylpropanamide], in assay [1], the Ki was 190 nM. Against the preceding molecule, the Ki is about 23-fold higher.
Regarding `COc1ccc([C@H](c2ccccc2)C(C)(C)C(=O)Nc2ccccn2)cc1` [Example 277, (3S)-2,2-dimethyl-3-(4-(methyloxy)phenyl)-3-phenyl-N-2-pyridinylpropanamide], in assay [1], the Ki is 2670 nM.
`COc1ccc(C(c2ccccc2)C(C)(C)C(=O)Nc2nncs2)c(F)c1` (stereo not drawn) [Example 280, 3-(2-fluoro-4-(methyloxy)phenyl)-2,2-dimethyl-3-phenyl-N-1,3,4-thiadiazol-2-ylpropanamide]: the Ki in assay [1] was determined as 100 nM.
Still for that read-out and setting: in the case of `CC(C)(C(=O)Nc1nccs1)[C@@H](c1ccccc1)c1ccc(N2CCOCC2)cc1` (stereo in doubt) [Example 257, 2,2-dimethyl-3-(4-(4-morpholinyl)phenyl)-3-phenyl-N-1,3-thiazol-2-ylpropanamide] it was 71.4 nM; in that of `CC(C)(C(=O)Nc1nccs1)C(c1ccccc1)c1ccc(F)cc1` (stereo not drawn) [Example 308, 3-(4-fluorophenyl)-2,2-dimethyl-3-phenyl-N-1,3-thiazol-2-ylpropanamide], 35 nM.
The same measure, in the same setting: the same measure for `COc1ccc([C@@H](c2ccccc2)C(C)(C)C(=O)Nc2nccs2)cc1Br` [Example 286, (3R)-3-(3-bromo-4-(methyloxy)phenyl)-2,2-dimethyl-3-phenyl-N-1,3-thiazol-2-ylpropanamide]: 46.7 nM.
Take `COc1cccc(C(c2ccccc2)C(C)(C)C(=O)Nc2nc(-c3ccccc3)cs2)c1` (stereo not drawn) [Example 95, 2,2-dimethyl-3-(3-(methyloxy)phenyl)-3-phenyl-N-(4-phenyl-1,3-thiaozl-2-yl)propanamide]: the Emax in assay [2] (setting [3]) stood at 36.2%.
On to `COc1ccccc1C(c1ccccc1)C(C)(C)C(=O)Nc1nc(C)cs1` (stereo not drawn) [Example 81, 2,2-dimethyl-3-(2-(methyloxy)phenyl)-N-(4-methyl-1,3-thiazol-2-yl)-3-phenylpropanamide], for which the Emax in assay [2] (setting [3]) was 23.1%.
Consider `CC(C)(C(=O)Nc1nc(Cc2ccc(-c3ccncc3)cc2)cs1)C(c1ccccc1)c1ccc(N2CCOCC2)cc1` (stereo not drawn) [Example 223, 2,2-dimethyl-3-(4-(4-morpholinyl)phenyl)-3-phenyl-N-(4-((4-(4-pyridinyl)phenyl)methyl)-1,3-thiazol-2-yl)propanamide], for which the Emax in assay [2] (setting [3]) was found to be 70.8%. Moreover, the EC50 in assay [2] (setting [4]) came out at 88.1 nM.
As for `COc1cccc(C(c2ccccc2)C(C)(C)C(=O)Nc2ncc(C)s2)c1` (stereo not drawn) [Example 93, 2,2-dimethyl-3-(3-(methyloxy)phenyl)-N-(5-methyl-1,3-thiazol-2-yl)-3-phenylpropanamide], the Emax in assay [2] (setting [3]) was 28.1%.
For the molecule `O=C(Nc1nccs1)C1(C(c2ccccc2)c2ccccc2)CCCC1` [Example 162, 1-(diphenylmethyl)-N-1,3-thiazol-2-ylcyclopentanecarboxamide], in assay [2] (setting [3]), the Emax stood at 22.8%.
Same read-out and setting: the same measure for `CCOC(=O)c1sc(NC(=O)C(C)(C)C(c2ccccc2)c2ccc(OC)cc2)nc1C` (stereo not drawn) [Example 112, ethyl 2-((2,2-dimethyl-3-(4-(methyloxy)phenyl)-3-phenylpropanoyl)amino)-4-methyl-1,3-thiazole-5-carboxylate]: 20.9%; for `CC(C)(C(=O)Nc1nccs1)C(c1ccccc1)c1cccc(O)c1` (stereo not drawn) [Example 197, 3-(3-hydroxyphenyl)-2,2-dimethyl-3-phenyl-N-1,3-thiazol-2-ylpropanamide]: 36.3%.
As for `CC(C)(C(=O)Nc1nncs1)C(c1ccccc1)c1ccc(-c2ccc(OC(F)(F)F)cc2)cc1` (stereo not drawn) [Example 405, 2,2-dimethyl-3-phenyl-N-1,3,4-thiadiazol-2-yl-3-(4′-(trifluoromethoxy)-4-biphenylyl)propanamide], the Emax in assay [2] (setting [3]) was determined as 35.2%. For the same molecule, the EC50 in assay [2] (setting [4]) worked out at 24.6 nM.
Take `CC(C)(C(=O)Nc1nc(-c2ccc(F)c3ccccc23)cs1)C(c1ccccc1)c1ccccc1` [Example 183, N-(4-(4-fluoro-1-naphthalenyl)-1,3-thiazol-2-yl)-2,2-dimethyl-3,3-diphenylpropanamide]: in assay [2] (setting [3]), the Emax turned out to be 65.3%.
For `COc1ccc2c(-c3csc(NC(=O)C(C)(C)C(c4ccccc4)c4ccccc4)n3)cccc2c1` [Example 166, 2,2-dimethyl-N-(4-(6-(methyloxy)-1-naphthalenyl)-1,3-thiazol-2-yl)-3,3-diphenylpropanamide], the Emax in assay [2] (setting [3]) amounted to 62.3%. This molecule also showed an EC50 in assay [2] (setting [4]) of 950 nM.
For `CC(C)(C(=O)Nc1nccs1)C(c1ccccc1)c1ccc(O)c(F)c1` (stereo not drawn) [Example 345, 3-(3-fluoro-4-hydroxyphenyl)-2,2-dimethyl-3-phenyl-N-1,3-thiazol-2-ylpropanamide], in assay [2] (Cellular Transrepression Assay), the EC50 was determined as 35.2 nM. Moreover, the Emax in assay [2] (setting [3]) was 68.1%.
Turning to `COc1ccc(C(c2ccccc2)C(C)(C)C(=O)Nc2nc(CCc3ccccc3)cs2)cc1` (stereo not drawn) [Example 109, 2,2-dimethyl-3-(4-(methyloxy)phenyl)-3-phenyl-N-(4-(2-phenylethyl)-1,3-thiazol-2-yl)propanamide], the Emax in assay [2] (setting [3]) was 22.6%.
On to `COc1ccccc1C(c1ccccc1)C(C)(C)C(=O)Nc1ncc(C)s1` (stereo not drawn) [Example 82, 2,2-dimethyl-3-(2-(methyloxy)phenyl)-N-(5-methyl-1,3-thiazol-2-yl)-3-phenylpropanamide], for which, in assay [2] (setting [3]), the Emax was found to be 25.9%.
In assay [2] (Cellular Transrepression Assay), `CC(C)(C(=O)Nc1nncs1)C(c1ccccc1)c1ccc(N2CCOCC2)cc1` (stereo not drawn) [Example 260, 2,2-dimethyl-3-(4-(4-morpholinyl)phenyl)-3-phenyl-N-1,3,4-thiadiazol-2-ylpropanamide] displayed an EC50 of 4.06 nM. For the same molecule, the “AP-1 Max % inh (Cellular Transrepression Assay)” value in assay [2] (maximum inhibition, Cellular Transrepression Assay) was determined as 35.64%.
In the case of `CC(C)(C(=O)Nc1nc(Cc2ccc(-c3ccncc3)cc2)cs1)C(c1ccccc1)c1ccc(Br)cc1` (stereo not drawn) [Example 300, 3-(4-bromophenyl)-2,2-dimethyl-3-phenyl-N-(4-((4-(4-pyridinyl)phenyl)methyl)-1,3-thiazol-2-yl)propanamide], in assay [2] (setting [3]), the Emax was 73.7%. This molecule also registered an EC50 in assay [2] (setting [4]) of 9.97 nM.
On to `COc1cccc2sc(NC(=O)C(C)(C)C(c3ccccc3)c3ccccc3)nc12` [Example 46, 2,2-dimethyl-N-(4-(methyloxy)-1,3-benzothiazol-2-yl)-3,3-diphenylpropanamide], for which, in assay [2] (setting [3]), the Emax was 22.9%.
For `COc1ccc(Cc2csc(NC(=O)C(C)(C)C(c3ccccc3)c3cccc(OC)c3)n2)cc1` (stereo not drawn) [Example 298, 2,2-dimethyl-3-(3-(methyloxy)phenyl)-N-(4-((4-(methyloxy)phenyl)methyl)-1,3-thiazol-2-yl)-3-phenylpropanamide], the Emax in assay [2] (setting [3]) came to 78.7%. The EC50 in assay [2] (setting [4]) is 417 nM.
The corresponding values for `CC(C)c1ccc(-c2ccc(C(c3ccccc3)C(C)(C)C(=O)Nc3nncs3)cc2)cc1` (stereo not drawn) [Example 422, 3-(4′-isopropyl-4-biphenylyl)-2,2-dimethyl-3-phenyl-N-1,3,4-thiadiazol-2-ylpropanamide] are 33.7% and 2.7 nM.
Regarding `COc1ccc(Cc2csc(NC(=O)C(C)(C)C(c3ccccc3)c3ccc(O)cc3)n2)cc1` (stereo not drawn) [Example 352], the Emax in assay [2] (setting [3]) turned out to be 61.7%. In assay [2] (setting [4]), this molecule yielded an EC50 of 118 nM.
The like results for `COc1ccc([C@@H](c2ccccc2)C(C)(C)C(=O)Nc2nc(Cc3ccc(-c4ccncc4)cc3)cs2)cc1` (stereo in doubt) [Example 290, 2,2-dimethyl-3-(4-(methyloxy)phenyl)-3-phenyl-N-(4-((4-(4-pyridinyl)phenyl)methyl)-1,3-thiazol-2-yl)propanamide] were, in that order, 72.6% and 9.65 nM.

The record behind these values is patent US7968577B2 (Bristol-Myers Squibb Company, priority 2006, dated 2011).
